Data: ChEMBL document CHEMBL1144507, “Synthesis and antifungal activity of (Z)-5-arylidenerhodanines” (2007)
≈ marks a conversion by molar mass, not a printed value.

Assays:
[1] = test system: Trichophyton rubrum; assay: Antifungal activity against Trichophyton rubrum C113 after 48 hrs; format: functional
[2] = test system: Candida tropicalis; assay: Antifungal activity against Candida tropicalis C131-1997 after 48 hrs; format: functional
[3] = test system: Aspergillus niger; assay: Antifungal activity against Aspergillus niger ATCC 9029 after 48 hrs; format: functional; conditions: ATCC 9029, 48 h
[4] = test system: Cryptococcus neoformans; assay: Antifungal activity against […] IM 052470 after 48 hrs; format: functional
[5] = test system: Cryptococcus neoformans; assay: Antifungal activity against […] IM 042074 after 48 hrs; format: functional
[6] = test system: Cryptococcus neoformans; assay: Antifungal activity against […] IM 031631 after 48 hrs; format: functional; conditions: Cryptococcus neoformans, 48 h
[7] = test system: Trichophyton benhamiae; assay: Antifungal activity against Trichophyton mentagrophytes C539 after 48 hrs; format: functional, Arthroderma benhamiae
[8] = test system: Cryptococcus neoformans; assay: Antifungal activity against […] IM 961951 after 48 hrs; format: functional
[9] = test system: Saccharomyces cerevisiae; assay: Antifungal activity against Saccharomyces cerevisiae ATCC 9763 after 48 hrs; format: functional; conditions: ATCC 9763, 48 h
[10] = test system: Trichophyton benhamiae; assay: Antifungal activity against Trichophyton mentagrophytes C943 after 48 hrs; format: functional, Arthroderma benhamiae
[11] = test system: Cryptococcus neoformans; assay: Antifungal activity against […] IM 972751 after 48 hrs; format: functional
[12] = test system: Trichophyton benhamiae; assay: Antifungal activity against Trichophyton mentagrophytes C738 after 48 hrs; format: functional, Arthroderma benhamiae
[13] = test system: Pichia kudriavzevii; assay: Antifungal activity against Candida krusei C117-2000 after 48 hrs; format: functional
[14] = test system: Aspergillus fumigatus; assay: Antifungal activity against Aspergillus fumigatus ATCC 26934 after 48 hrs; format: functional; conditions: ATCC 26934, 48 h
[15] = test system: Torulaspora delbrueckii; assay: Antifungal activity against Candida coliculosa C122-2000 after 48 hrs; format: functional
[16] = test system: Nakaseomyces glabratus; assay: Antifungal activity against Candida glabrata C115-2000 after 48 hrs; format: functional
[17] = test system: Candida albicans; assay: Antifungal activity against Candida albicans C130-2000 after 48 hrs; format: functional
[18] = test system: Candida albicans; assay: Antifungal activity against Candida albicans C129-2000 after 48 hrs; format: functional
[19] = test system: Candida albicans; assay: Antifungal activity against Candida albicans C127-2000 after 48 hrs; format: functional

O=C1NC(=S)S/C1=C\c1ccc(F)cc1 was tested, and the MIC [1] was 32 µg/mL (≈ 134 µM), the MFC [2] was 15.6 µg/mL (≈ 65.2 µM) and the MIC [2] was 7.8 µg/mL (≈ 32.6 µM). It also gave an MIC50 [2] of 3.9 µg/mL (≈ 16.3 µM), an MIC80 [2] of 7.8 µg/mL (≈ 32.6 µM) and an MIC [3] of 250 µg/mL (≈ 1040 µM). The MFC [4] was 31.2 µg/mL (≈ 130 µM), the MIC [4] was 7.8 µg/mL (≈ 32.6 µM) and the MIC50 [4] was 1.9 µg/mL (≈ 7.94 µM). The MIC80 [4] was 1.9 µg/mL (≈ 7.94 µM), the MFC [5] was 31.2 µg/mL (≈ 130 µM) and the MIC [5] was 7.8 µg/mL (≈ 32.6 µM). It also gave an MIC50 [5] of 3.9 µg/mL (≈ 16.3 µM), an MIC80 [5] of 3.9 µg/mL (≈ 16.3 µM) and an MIC [6] of 7.8 µg/mL (≈ 32.6 µM). It also gave an MIC50 [6] of 1.9 µg/mL (≈ 7.94 µM), an MIC80 [6] of 3.9 µg/mL (≈ 16.3 µM) and an MFC ([6]; read-out: MFC) of 31.2 µg/mL (≈ 130 µM). The MIC [7] was 1.95 µg/mL (≈ 8.15 µM), the MFC [8] was 15.6 µg/mL (≈ 65.2 µM) and the MIC [8] was 7.8 µg/mL (≈ 32.6 µM). It also gave an MIC50 [8] of 1.9 µg/mL (≈ 7.94 µM), an MIC80 [8] of 7.8 µg/mL (≈ 32.6 µM) and an MIC [9] of 7.8 µg/mL (≈ 32.6 µM). The MIC [10] was 0.97 µg/mL (≈ 4.05 µM), the MFC [11] was 62.5 µg/mL (≈ 261 µM) and the MIC [11] was 7.8 µg/mL (≈ 32.6 µM). For the same compound, the MIC50 [11] was 1.9 µg/mL (≈ 7.94 µM), the MIC80 [11] was 1.9 µg/mL (≈ 7.94 µM) and the MIC [12] was 1.95 µg/mL (≈ 8.15 µM). It also gave an MFC [13] of 62.5 µg/mL (≈ 261 µM), an MIC [13] of 31.2 µg/mL (≈ 130 µM) and an MIC50 [13] of 3.9 µg/mL (≈ 16.3 µM). For the same compound, the MIC80 [13] was 7.8 µg/mL (≈ 32.6 µM), the MIC [14] was 250 µg/mL (≈ 1040 µM) and the MFC [15] was 15.6 µg/mL (≈ 65.2 µM). The MIC [15] was 7.8 µg/mL (≈ 32.6 µM), the MIC50 [15] was 3.9 µg/mL (≈ 16.3 µM) and the MIC80 [15] was 3.9 µg/mL (≈ 16.3 µM). For the same compound, the MFC [16] was 51.6 µg/mL (≈ 216 µM), the MIC [16] was 7.8 µg/mL (≈ 32.6 µM) and the MIC50 [16] was 3.9 µg/mL (≈ 16.3 µM). It also gave an MIC80 [16] of 3.9 µg/mL (≈ 16.3 µM), an MFC [17] of 31.2 µg/mL (≈ 130 µM) and an MIC [17] of 15.6 µg/mL (≈ 65.2 µM). It also gave an MIC50 [17] of 3.9 µg/mL (≈ 16.3 µM), an MIC80 [17] of 7.8 µg/mL (≈ 32.6 µM) and an MFC [18] of 31.2 µg/mL (≈ 130 µM). The MIC [18] was 15.6 µg/mL (≈ 65.2 µM), the MIC50 [18] was 3.9 µg/mL (≈ 16.3 µM) and the MIC80 [18] was 7.8 µg/mL (≈ 32.6 µM). The MFC [19] was 31.2 µg/mL (≈ 130 µM), the MIC [19] was 15.6 µg/mL (≈ 65.2 µM) and the MIC50 [19] was 7.8 µg/mL (≈ 32.6 µM). The MIC80 [19] was 15.6 µg/mL (≈ 65.2 µM).
